Like-named read-outs stand apart in the source and are kept apart here.
Tests used:
BACE1 = BACE1 (Homo sapiens, UniProt P56817); experiment: In vitro enzymatic BACE FRET (fluorescence resonance energy transfer) assay; assay type: biochemical
Experimental: In Vitro Enzymatic BACE FRET (Fluorescence Resonance Energy Transfer) Assay (Enzyme Assay Data in Table 1)
The assay buffer used in this screen is 0.05 M acetate, pH 4.2, 10% DMSO final, 100 uM genapol (which is a nonionic detergent, below its Critical Micelle Concentration). […] The assay is effectively started by the addition of FRET substrate (50 nM) and the combination is incubated for one hour. The FRET assay is terminated with by addition of Tris buffer, which raises the pH to neutrality, and the fluorescence is determined. The FRET substrate is a peptide with commercially available fluorophore and quencher, on opposite sides of the BACE cleavage site. Proteolytic cleavage of the FRET substrate releases quenching of fluorescence (excitation […] and emission […]).

[1] = tested on: Cells stably expressing Amyloid Precursor Protein (APP); experiment: In vitro BACE cell-based assay (HEK cell assay): Aβ40 in conditioned medium by sandwich ELISA; details: Homo sapiens
Experimental: In Vitro BACE Cell-Based Assay:
The cell-based assay measures inhibition or reduction of Aβ40 in conditioned medium of test compound treated cells expressing amyloid precursor protein.
Cells stably expressing Amyloid Precursor Protein (APP) were plated at a density of 40K cells/well in 96 well plates (Costar). The cells were cultivated for 24 hours at 37° C. and 5% CO2 in DMEM supplemented with 10% FBS. The test compounds were then added to cells in 10-point dose response concentrations with the starting concentration being either 100 μM or 10 μM. The compounds were diluted from stock solutions in DMSO and the final DMSO concentration of the test compounds on cells was 0.1%. After 24 h of incubation with the test compounds the supernatant conditioned media was collected and the Aβ 40 levels were determined using a sandwich ELISA. The IC50 of the compound was calculated from the percent of control or percent inhibition of Aβ 40 as a function of the concentration of the test compound.
The sandwich ELISA to detect Aβ 40 was performed in 96 well microtiter plates, which were pre-treated with goat anti-rabbit IgG (Pierce). The capture and detecting antibody pair that were used to detect Aβ 40 from cell supernatants were affinity purified pAb40 (Biosource) and biotinylated 6E10 (Signet Labs Inc.), respectively. The optimal concentration for the pAb40 antibody was 3 μg/ml in Superblock/TBS (Pierce) that was supplemented with 0.05% Tween 20 (Sigma). Optimal concentration for the detection antibody 6E10-biotinylated was 0.5 μg/ml in Superblock/TBS (Pierce) that had been supplemented with 2% normal goat serum and 2% normal mouse serum.
Cellular supernatants were incubated with the capture antibody for 3 h at 4° C., followed by 3 wash steps in TBS-tween (0.05%). The detecting antibody incubation was for 2 h at 4° C., again followed by the wash steps as described previously. The final readout of the ELISA is Time-Resolved Fluorescence (counts per minute) using Delfia reagents Streptavidin-Europium and Enhancement solutions (Perkin Elmer) and the Victor 2 multilabel counter (Perkin Elmer).
Of the compounds tested, in-the cell-based assay, data for each of Examples 33-156 is provided in Table 1 and Examples 208-246 are provided in Table 4.

[2] = HEK293, 24 h, Aβ40 in conditioned medium after 24 h incubation

Chain of BACE1 (P56817 46-501, species assumed): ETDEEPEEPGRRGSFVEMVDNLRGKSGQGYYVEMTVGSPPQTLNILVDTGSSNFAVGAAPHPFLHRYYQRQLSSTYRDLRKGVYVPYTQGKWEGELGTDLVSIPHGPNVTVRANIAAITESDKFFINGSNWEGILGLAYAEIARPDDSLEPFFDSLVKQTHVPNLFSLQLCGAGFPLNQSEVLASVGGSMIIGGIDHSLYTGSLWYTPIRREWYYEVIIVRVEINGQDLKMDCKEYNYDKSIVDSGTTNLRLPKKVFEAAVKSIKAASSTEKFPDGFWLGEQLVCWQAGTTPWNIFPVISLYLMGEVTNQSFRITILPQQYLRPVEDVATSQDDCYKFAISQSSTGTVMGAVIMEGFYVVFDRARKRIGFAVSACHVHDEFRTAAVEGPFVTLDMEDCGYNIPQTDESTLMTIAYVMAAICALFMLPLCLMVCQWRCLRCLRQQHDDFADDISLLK

Compound | IC50 (BACE1) | IC50 [1, 2] | IC50 (BACE1; read-out: BACE 1 FRET assay) | IC50 ([1]; HEK293)
C=CC[C@H](NC(=O)[C@H](C)OC)[C@H](O)CN[C@H]1CC2(CCC2)Oc2ncc(CC(C)(C)C)cc21 [Example 95, (2S)-N-((1S)-1-((1R)-2-(((4′S)-6′-(2,2-dimethylpropyl)-3′,4′-dihydrospiro[cyclobutane-1,2′-pyrano[2,3-b]pyridin]-4′-yl)amino)-1-hydroxyethyl)-3-buten-1-yl)-2-(methyloxy)propanamide] | 145 nM | 637 nM | – | –
C=CC[C@H](NC(=O)c1cccs1)[C@H](O)CN[C@H]1CC2(CCC2)Oc2ncc(CC(C)(C)C)cc21 [Example 128, N-((1S)-1-((1R)-2-(((4′S)-6′-(2,2-dimethylpropyl)-3′,4′-dihydrospiro[cyclobutane-1,2′-pyrano[2,3-b]pyridin]-4′-yl)amino)-1-hydroxyethyl)-3-buten-1-yl)-2-thiophenecarboxamide] | 169 nM | 1320 nM | – | –
C=CC[C@H](NC(=O)c1ccc(F)cc1)[C@H](O)CN[C@H]1CC2(CCC2)Oc2ncc(CC(C)(C)C)cc21 [Example 58, N-((1S)-1-((1R)-2-(((4′S)-6′-(2,2-dimethylpropyl)-3′,4′-dihydrospiro[cyclobutane-1,2′-pyrano[2,3-b]pyridin]-4′-yl)amino)-1-hydroxyethyl)-3-buten-1-yl)-4-fluorobenzamide] | 172 nM | 666 nM | – | –
C=CC[C@H](NC(=O)C1COC(c2ccccn2)O1)[C@H](O)CNC1CC2(CCC2)Oc2ncc(CC(C)(C)C)cc21 (stereo partly drawn) [compound 242, N-((1S)-1-((1R)-2-((6′-(2,2-dimethylpropyl)-3′,4′-dihydrospiro[cyclobutane-1,2′-pyrano[2,3-b]pyridin]-4′-yl)amino)-1-hydroxyethyl)-3-buten-1-yl)-2-(2-pyridinyl)-1,3-dioxolane-4-carboxamide] | – | – | 3830 nM | 691 nM
C=CC[C@H](NC(=O)c1cnccn1)[C@H](O)CN[C@H]1CC2(CCC2)Oc2ncc(CC(C)(C)C)cc21 [Example 98, N-((1S)-1-((1R)-2-(((4′S)-6′-(2,2-dimethylpropyl)-3′,4′-dihydrospiro[cyclobutane-1,2′-pyrano[2,3-b]pyridin]-4′-yl)amino)-1-hydroxyethyl)-3-buten-1-yl)-2-pyrazinecarboxamide] | 741 nM | 1680 nM | – | –
C=CC[C@H](NC(=O)[C@H](F)c1ccccc1)[C@H](O)CN[C@H]1CC2(CCC2)Oc2ncc(CC(C)(C)C)cc21 [Example 143, (2R)-N-((1S)-1-((1R)-2-(((4′S)-6′-(2,2-dimethylpropyl)-3′,4′-dihydrospiro[cyclobutane-1,2′-pyrano[2,3-b]pyridin]-4′-yl)amino)-1-hydroxyethyl)-3-buten-1-yl)-2-fluoro-2-phenylethanamide] | 2890 nM | 539 nM | – | –
C=CC[C@H](NC(=O)c1ccc2c(c1)OC(F)(F)O2)[C@H](O)CN[C@H]1CC2(CCC2)Oc2ncc(CC(C)(C)C)cc21 [Example 104, N-((1S)-1-((1R)-2-(((4′S)-6′-(2,2-dimethylpropyl)-3′,4′-dihydrospiro[cyclobutane-1,2′-pyrano[2,3-b]pyridin]-4′-yl)amino)-1-hydroxyethyl)-3-buten-1-yl)-2,2-difluoro-1,3-benzodioxole-5-carboxamide] | 154 nM | 2360 nM | – | –
C=CC[C@H](NC(=O)c1cc(F)cc(F)c1)[C@H](O)CN[C@H]1CC2(CCC2)Oc2ncc(CC(C)(C)C)cc21 [Example 61, N-((1S)-1-((1R)-2-(((4′S)-6′-(2,2-dimethylpropyl)-3′,4′-dihydrospiro[cyclobutane-1,2′-pyrano[2,3-b]pyridin]-4′-yl)amino)-1-hydroxyethyl)-3-buten-1-yl)-3,5-difluorobenzamide] | 5 nM | 29.1 nM | – | –
C=CC[C@H](NC(=O)[C@@H](F)C(F)(F)F)[C@H](O)CN[C@H]1CC2(CCC2)Oc2ncc(CC(C)(C)C)cc21 [Example 137, (2R)-N-((1S)-1-((1R)-2-(((4′S)-6′-(2,2-dimethylpropyl)-3′,4′-dihydrospiro[cyclobutane-1,2′-pyrano[2,3-b]pyridin]-4′-yl)amino)-1-hydroxyethyl)-3-buten-1-yl)-2,3,3,3-tetrafluoropropanamide] | 79 nM | 633 nM | – | –
C=CC[C@H](NC(=O)COC)[C@H](O)CN[C@H]1CC2(CCC2)Oc2nc(F)c(CC(C)C)cc21 [Example 126, N-((1S)-1-((1R)-2-(((4′S)-7′-fluoro-6′-(2-methylpropyl)-3′,4′-dihydrospiro[cyclobutane-1,2′-pyrano[2,3-b]pyridin]-4′-yl)amino)-1-hydroxyethyl)-3-buten-1-yl)-2-(methyloxy)acetamide] | 316 nM | 211 nM | – | –
C=CC[C@H](NC(=O)c1cccnc1)[C@H](O)CN[C@H]1CC2(CCC2)Oc2ncc(CC(C)(C)C)cc21 [Example 96, N-((1S)-1-((1R)-2-(((4′S)-6′-(2,2-dimethylpropyl)-3′,4′-dihydrospiro[cyclobutane-1,2′-pyrano[2,3-b]pyridin]-4′-yl)amino)-1-hydroxyethyl)-3-buten-1-yl)-3-pyridinecarboxamide] | 68 nM | 135 nM | – | –
C=CC[C@H](NC(=O)c1nccs1)[C@H](O)CN[C@H]1CC2(CCC2)Oc2ncc(CC(C)(C)C)cc21 [Example 133, N-((1S)-1-((1R)-2-(((4′S)-6′-(2,2-dimethylpropyl)-3′,4′-dihydrospiro[cyclobutane-1,2′-pyrano[2,3-b]pyridin]-4′-yl)amino)-1-hydroxyethyl)-3-buten-1-yl)-1,3-thiazole-2-carboxamide] | 106 nM | 167 nM | – | –

The remaining compounds from weak to strong by IC50 (BACE1), led by results:

IC50 (BACE1) | IC50 [1, 2] | IC50 (BACE1; read-out: BACE 1 FRET assay) | IC50 ([1]; HEK293) | Compound
9300 nM | ≥ 10000 nM | – | – | C=CCC(NC(=O)C1CCC(=O)O1)C(O)CNC1CC2(CCC2)Oc2cnc(C(F)(F)F)cc21 [Example 119, (S)-N-((2R,3S)-1-((S)-2,2-spirocyclobutyl-6-(trifluoromethyl)-3,4-dihydro-2H-pyrano[2,3-c]pyridin-4-ylamino)-2-hydroxyhex-5-en-3-yl)-5-oxo-tetrahydrofuran-2-carboxamide]
2670 nM | 5280 nM | – | – | C=CC[C@H](NC(=O)[C@H](OC)C(C)C)[C@H](O)CN[C@H]1CC2(CCC2)Oc2ncc(CC(C)(C)C)cc21 [Example 150, (2R)-N-((1S)-1-((1R)-2-(((4′S)-6′-(2,2-dimethylpropyl)-3′,4′-dihydrospiro[cyclobutane-1,2′-pyrano[2,3-b]pyridin]-4′-yl)amino)-1-hydroxyethyl)-3-buten-1-yl)-3-methyl-2-(methyloxy)butanamide]
365 nM | 2820 nM | – | – | C=CC[C@H](NC(=O)COC)[C@H](O)CN[C@H]1CC2(CCC2)Oc2c1cc(CC(C)(C)C)nc2N(C)C [Example 48, N-((1S)-1-((1R)-2-(((4′S)-8′-(dimethylamino)-6′-(2,2-dimethylpropyl)-3′,4′-dihydrospiro[cyclobutane-1,2′-pyrano[2,3-c]pyridin]-4′-yl)amino)-1-hydroxyethyl)-3-buten-1-yl)-2-(methyloxy)acetamide]
271 nM | 709 nM | – | – | C=CC[C@H](NC(=O)c1cncnc1)[C@H](O)CN[C@H]1CC2(CCC2)Oc2ncc(CC(C)(C)C)cc21 [Example 68, N-((1S)-1-((1R)-2-(((4′S)-6′-(2,2-dimethylpropyl)-3′,4′-dihydrospiro[cyclobutane-1,2′-pyrano[2,3-b]pyridin]-4′-yl)amino)-1-hydroxyethyl)-3-buten-1-yl)-5-pyrimidinecarboxamide]
130 nM | 664 nM | – | – | C=CC[C@H](NC(=O)c1cscn1)[C@H](O)CN[C@H]1CC2(CCC2)Oc2ncc(CC(C)(C)C)cc21 [Example 134, N-((1S)-1-((1R)-2-(((4′S)-6′-(2,2-dimethylpropyl)-3′,4′-dihydrospiro[cyclobutane-1,2′-pyrano[2,3-b]pyridin]-4′-yl)amino)-1-hydroxyethyl)-3-buten-1-yl)-1,3-thiazole-4-carboxamide]
69 nM | 216 nM | – | – | C=CC[C@H](NC(=O)COC)[C@H](O)CN[C@H]1CC2(CCC2)Oc2ncc([C@H](F)C(C)(C)C)cc21 [Example 82, N-((1S)-1-((1R)-2-(((4′S)-6′-((1R)-1-fluoro-2,2-dimethylpropyl)-3′,4′-dihydrospiro[cyclobutane-1,2′-pyrano[2,3-b]pyridin]-4′-yl)amino)-1-hydroxyethyl)-3-buten-1-yl)-2-(methyloxy)acetamide]
